Earlier results as cited in patent US20230313389A1, “APPARATUS AND METHOD FOR THE ELECTROLYTIC PRODUCTION OF HYPOCHLOROUS ACID” (GROUPE OXWELL INC., priority 2020, published 2023).

Legend:
[1] = under ideal conditions
[2] = as disinfectant
[3] = tested on: viruses, including coronaviruses; details: variety of viruses

## OCl [HOCl, Hypochlorous acid]
[1]
  shelf life (time HOCl is effective): up to 2 weeks
[2]
  effectiveness relative to chlorine in the form of ClO-: 100 times
[3]
  time to inactivate viruses: less than 1 minute
